Patent US12679838B2, “Aromatic compound and application thereof in antitumor drug” (Shanghai Zheye Biotechnology Co., Ltd., priority 2020, dated 2026)
Where two headings read alike, the source gives them in different places. Each block holds one molecule with its values, some of them ahead of it.

Columns and labels:
MIA PaCa-2 cells = assay: Cell proliferation inhibitory activity, MIA PaCa-2 (CellTiter-Glo); type: cell-based; conditions: for IC50: Homo sapiens, MIA PaCa-2 cells, 72 hours
Method: (§1) MIA PaCa-2 cells in an exponential growth phase were digested with trypsin-EDTA and plated in a 96-well plate at 2000-3000 cells per well and incubated overnight at 37° C. with 5% CO2. A test compound was prepared as a mother liquor with DMSO, diluted with a DMEM growth medium in a concentration gradient and added to the 96-well plate and incubated for 72 hours at 37° C. in a 5% CO2 incubator. After incubation, an equal volume of CellTiter-Glo detection reagent was added to each well and incubated after shaking, and a chemiluminescence value was measured by a microplate reader, and the IC50 value for the inhibition of MIA PaCa-2 cell proliferation was fitted and calculated by GraphPad Prism software.

NCI-H358 cells = assay: Cell proliferation inhibitory activity, NCI-H358 (CellTiter-Glo); type: cell-based; conditions: for IC50: Homo sapiens
Method: as §1, with “NCI-H358” for “MIA PaCa-2”, “RPMI 1640” for “DMEM”
The inhibitory effect of the compounds on the proliferation activity of H358 cells was tested with reference to the method of the biological test 2, and the results were as follows:
The inhibitory effect of the compounds on the proliferation activity of NCI-H358 cells was tested with reference to the method of the biological test 2, and the results were as follows.

[1] = tested on: NCI-H358 tumor cells xenograft; assay: Pharmacodynamics test of xenograft tumor model of NCI-H358 in nude mice; type: in vivo, Balb/c Nude mice; conditions: NCI-H358 xenograft, 100 mg/kg, QD×15 days, oral gavage
Method: Animal species and number: Balb/c Nude; 6 animals per group.
Samples for testing: compound 3-2M, compound 3-16M, TM-1, TM-3, and AMG510 (obtained by purchasing).
Test groups: blank solvent control group; compound 3-2M (100 mg/kg, QD×15 days), compound 3-16M (100 mg/kg, QD×15 days), TM-1 (100 mg/kg, QD×15 days), TM-3 (100 mg/kg, QD×15 days); and AMG510 (100 mg/kg, QD×15 days).
Animal model establishment: NCI-H358 tumor cells at logarithmic phase were cultured and collected in vitro, and inoculated subcutaneously on the right side of the back of nude mice at a quantity of 5×10^6 cells/each, and the tumor-bearing nude mice were randomly grouped when the tumor volume grew to 150-300 mm^3. Subsequently, each group of animals was administered and the day of the first administration was defined as day 1 of the test.
Administration route and frequency: oral gavage; and once a day.
General state observation: observation time and frequency: once a day; observation index or content: including, but is not limited to local administration, appearance and signs, general behavioral activities, mental status, death and other abnormal manifestations of the animals. The animals were euthanized at the end of the test.
Tumor volume calculation: V=½×long diameter× short diameter^2 (mm^3). Tumor growth inhibition ratio TGI (%) was used to evaluate the tumor suppressive efficacy of the compounds. TGI (%)=[1-(mean tumor volume at the end of administration of the treatment group−mean tumor volume at the beginning of administration of the treatment group)/(mean tumor volume at the end of administration of the control group−mean tumor volume at the beginning of administration of the control group)]×100%.

NCI-H358 = assay: Cell proliferation inhibitory activity of NCI-H358, 3D model test (agarose colony formation); type: cell-based; conditions: Homo sapiens, NCI-H358; agarose gel, colony formation, NBT staining
Method: 100 μl of high concentration agarose gel was spread in a 96-well plate as a bottom agarose gel layer; low concentration agarose and growth medium containing cells were mixed and spread on the bottom agarose gel layer, cooled and solidified and incubated overnight at 37° C.; a test compound was prepared into a mother liquor with DMSO, diluted with a RPMI 1640 growth medium in a concentration gradient, and the gradient diluted solution of the compound to be tested with different concentrations was added into 96 wells containing upper agarose gel cells, and solvent control wells were set and placed in a carbon dioxide incubator for culture. During the period, the drug-containing medium was changed to observe the cell growth. After the culture, the cells were stained with NBT, the number of colony formation was counted, and the IC50 value of the compound inhibiting cell proliferation was obtained.

[2] = tested on: Langendorff isolated perfused heart; assay: In vitro isolated heart perfusion test (Langendorff); set-up: species or system Guinea pig; conditions: 3.3 μM
Text: Test method: influences of Langendorff isolated perfused heart test compounds on electrocardiogram, wherein the test method used in this test was as follows: [table] Test compounds: compound 3-2M and the compound in Example 41 of patent WO2018217651A1 (i.e., AMG510).

[3] = NCI-H358, biological test 3, H358 cells, read-out: Cell proliferation inhibitory activity IC50 value of H358
[4] = NCI-H358, 72 h, biological test 2, NCI-H358 cells, 72 hours, read-out: Cell proliferation inhibitory activity IC50 value of H358
[5] = NCI-H358, biological test 7, NCI-H358 cells, read-out: Cell proliferation inhibitory activity IC50 value of NCI-H358

Structure (SMILES): C=CC(=O)N1CCN(c2nc(=O)n(-c3c(C)ccnc3C(C)C)c3nc(-c4ccccc4C=O)c(Cl)cc23)[C@@H](C)C1 [Compound 3-2]
- cell proliferation inhibitory activity against KRAS G12C mutant cells MIA PaCa-2 (in words) (MIA PaCa-2 cells): significant cell proliferation inhibitory activities
- IC50 (MIA PaCa-2 cells): < 50 nM
- cell proliferation inhibitory activity against KRAS G12C mutant cells NCI-H358 (in words) (NCI-H358 cells): significant cell proliferation inhibitory activities
- IC50 (NCI-H358 cells; [4]): ≤ 50 nM

Structure (SMILES): [2H]C(=O)c1cccc(F)c1-c1nc2c(cc1Cl)c(N1CCN(C(=[18O])C=C)C[C@@H]1C)nc(=O)n2-c1c(C)ccnc1C(C)C [Compound 3-7MIS]
- cell proliferation inhibitory activity against KRAS G12C mutant cells NCI-H358 (in words) (NCI-H358 cells): significant cell proliferation inhibitory activities
- IC50 (NCI-H358 cells; [3]): < 50 nM

Structure (SMILES): C=CC(=O)N1C[C@H](C)N(c2nc(=O)n(-c3c(C)ccnc3C(C)C)c3nc(-c4ccccc4C(=O)O)c(Cl)cc23)C[C@H]1C [TM-3, reference compound]
- IC50 (NCI-H358 cells; [5]): > 150 nM
- Tumor suppression ratio (%) [1]: + (“+” represents that the tumor suppression ratio is less than 60%)

Structure (SMILES): [2H]C(=O)c1ccccc1-c1nc2c(cc1Cl)c(N1[C@@H](C)CN(C(=[18O])C=C)C[C@@H]1C)nc(=O)n2-c1c(C)ccnc1C(C)C [Compound 3-8MIS]
- cell proliferation inhibitory activity against KRAS G12C mutant cells NCI-H358 (in words) (NCI-H358 cells): significant cell proliferation inhibitory activities
- IC50 (NCI-H358 cells; [3]): < 50 nM

Structure (SMILES): C=CC(=[18O])N1CCN(c2nc(=O)n(-c3c(C)ccnc3C(C)C)c3nc(-c4c(F)cccc4C=O)c(Cl)cc23)[C@@H](C)C1 [Compound 3-3MIS]
- cell proliferation inhibitory activity against KRAS G12C mutant cells NCI-H358 (in words) (NCI-H358 cells): significant cell proliferation inhibitory activities
- IC50 (NCI-H358 cells; [3]): < 50 nM

Structure (SMILES): C=CC(=O)N1CCN(c2nc(=O)n(-c3c(C)ccnc3C(C)C)c3nc(-c4c(F)cccc4C=O)c(Cl)cc23)[C@@H](C)C1 [Compound 3-6]
- cell proliferation inhibitory activity against KRAS G12C mutant cells MIA PaCa-2 (in words) (MIA PaCa-2 cells): significant cell proliferation inhibitory activities
- IC50 (MIA PaCa-2 cells): < 50 nM
- cell proliferation inhibitory activity against KRAS G12C mutant cells NCI-H358 (in words) (NCI-H358 cells): significant cell proliferation inhibitory activities

Structure (SMILES): [2H]C(=O)c1ccccc1-c1nc2c(cc1Cl)c(N1CCN(C(=O)C=C)C[C@@H]1C)nc(=O)n2-c1c(CC)ccnc1C(C)C [Compound 3-6B]
- cell proliferation inhibitory activity against KRAS G12C mutant cells NCI-H358 (in words) (NCI-H358 cells): significant cell proliferation inhibitory activities
- IC50 (NCI-H358 cells; [4]): ≤ 50 nM
- IC50 (NCI-H358 cells; [5]): < 50 nM

Structure (SMILES): C=CC(=[18O])N1CCN(c2nc(=O)n(-c3c(CC)ccnc3C(C)C)c3nc(-c4ccccc4C=O)c(Cl)cc23)[C@@H](C)C1 [Compound 3-2MIS]
- cell proliferation inhibitory activity against KRAS G12C mutant cells NCI-H358 (in words) (NCI-H358 cells): significant cell proliferation inhibitory activities
- IC50 (NCI-H358 cells; [3]): < 50 nM

Structure (SMILES): C=CC(=O)N1CCN(c2nc(=O)n(-c3c(C)ccnc3C(C)C)c3nc(-c4c(O)cccc4F)c(F)cc23)[C@@H](C)C1 [AMG510, reference compound]
- Tumor suppression ratio (%) [1]: +++ (“+++” represents that the tumor suppression ratio is between 101% and 140%)
- IC50 (NCI-H358): 9.3 nM
- effect on the heart rate of the isolated heart (in words) [2]: significant effect on reducing the heart rate
- HR (heart rate) change % ([2]; Guinea pig isolated heart): C (“C” represents that the heart rate decreases by greater than or equal to 15%)

Structure (SMILES): [2H]C(=O)c1ccccc1-c1nc2c(cc1Cl)c(N1[C@@H](C)CN(C(=O)C=C)C[C@@H]1C)nc(=O)n2-c1c(C)ccnc1C(C)C [Compound 3-14]
- cell proliferation inhibitory activity against KRAS G12C mutant cells NCI-H358 (in words) (NCI-H358 cells): significant cell proliferation inhibitory activities
- IC50 (NCI-H358 cells; [4]): ≤ 50 nM

Structure (SMILES): C=CC(=O)N1CCN(c2nc(=O)n(-c3c(C(C)C)ncnc3C(C)C)c3nc(-c4ccccc4C=O)c(Cl)cc23)[C@@H](C)C1 [Compound 3-31]
- cell proliferation inhibitory activity against KRAS G12C mutant cells NCI-H358 (in words) (NCI-H358 cells): significant cell proliferation inhibitory activities
- IC50 (NCI-H358 cells; [5]): < 50 nM

Structure (SMILES): C=CC(=O)N1CCN(c2nc(=O)n(-c3c(C)ccnc3C(C)C)c3nc(-c4c(F)cccc4C=O)c(Cl)cc23)[C@@H](C)C1 [Compound 3-6P]
- IC50 (NCI-H358 cells; [4]): > 50 nM

Structure (SMILES): [2H]C(=O)c1ccccc1-c1nc2c(cc1Cl)c(N1CCN(C(=O)C=C)C[C@]1([2H])C)nc(=O)n2-c1c(C)ccnc1C(C)C [Compound 3-28M]
- cell proliferation inhibitory activity against KRAS G12C mutant cells NCI-H358 (in words) (NCI-H358 cells): significant cell proliferation inhibitory activities
- IC50 (NCI-H358 cells; [4]): ≤ 50 nM

More lines, main results first:

- IC50 (MIA PaCa-2 cells): < 50 nM
Structure (SMILES): C=CC(=O)N1C[C@H](C)N(c2nc(=O)n(-c3c(C)ccnc3C(C)C)c3nc(-c4c(F)cccc4C=O)c(Cl)cc23)C[C@H]1C [Compound 3-19M]
- cell proliferation inhibitory activity against KRAS G12C mutant cells MIA PaCa-2 (in words) (MIA PaCa-2 cells): significant cell proliferation inhibitory activities

- IC50 (NCI-H358 cells; [3]): < 50 nM
Structure (SMILES): [2H]C(=O)c1ccccc1-c1nc2c(cc1Cl)c(N1CCN(C(=[18O])C=C)C[C@@H]1C)nc(=O)n2-c1c(CC)ccnc1C(C)C [Compound 3-6MIS]
- cell proliferation inhibitory activity against KRAS G12C mutant cells NCI-H358 (in words) (NCI-H358 cells): significant cell proliferation inhibitory activities

- IC50 (NCI-H358 cells; [3]): < 50 nM
Structure (SMILES): [2H]C(=O)c1ccccc1-c1nc2c(cc1Cl)c(N1CCN(C(=[18O])C=C)C[C@@H]1C)nc(=O)n2-c1c(C)ccnc1C(C)C [Compound 3-5MIS]
- cell proliferation inhibitory activity against KRAS G12C mutant cells NCI-H358 (in words) (NCI-H358 cells): significant cell proliferation inhibitory activities

- IC50 (MIA PaCa-2 cells): < 50 nM
Structure (SMILES): C=CC(=O)N1C[C@H](C)N(c2nc(=O)n(-c3c(C)ccnc3C(C)C)c3nc(-c4ccccc4C=O)c(Cl)cc23)C[C@H]1C [Compound 3-17M]
- cell proliferation inhibitory activity against KRAS G12C mutant cells MIA PaCa-2 (in words) (MIA PaCa-2 cells): significant cell proliferation inhibitory activities

- IC50 (NCI-H358 cells; [5]): 50 to 150 nM
Structure (SMILES): C=CC(=O)N1CCN(c2nc(=O)n(-c3c(C)ccnc3C(C)C)c3nc(-c4ccccc4C(C)=O)c(Cl)cc23)[C@@H](C)C1 [TM-1, reference compound]
- Tumor suppression ratio (%) [1]: ++ (“++” represents that the tumor suppression ratio is between 60% and 100%)

- IC50 (NCI-H358 cells; [5]): > 150 nM
Structure (SMILES): C=CC(=O)N1C[C@H](C)N(c2nc(=O)n(-c3c(C)ccnc3C(C)C)c3nc(-c4ccccc4C(N)=O)c(Cl)cc23)C[C@H]1C [TM-2, reference compound]

- IC50 (NCI-H358 cells; [3]): < 50 nM
Structure (SMILES): C=CC(=[18O])N1C[C@H](C)N(c2nc(=O)n(-c3c(C)ccnc3C(C)C)c3nc(-c4ccccc4C=O)c(Cl)cc23)[C@@H](C)C1 [Compound 3-4MIS]
- cell proliferation inhibitory activity against KRAS G12C mutant cells NCI-H358 (in words) (NCI-H358 cells): significant cell proliferation inhibitory activities

- IC50 (NCI-H358 cells; [3]): < 50 nM
Structure (SMILES): C=CC(=[18O])N1CCN(c2nc(=O)n(-c3c(C)ccnc3C(C)C)c3nc(-c4ccccc4C=O)c(Cl)cc23)[C@@H](C)C1 [Compound 3-1MIS]
- cell proliferation inhibitory activity against KRAS G12C mutant cells NCI-H358 (in words) (NCI-H358 cells): significant cell proliferation inhibitory activities
